Tests used:
[1] = test system: KMS11 (human myeloma cell line); assay: Cell proliferation assay (CellTiter-Glo) in KMS11 cells; assay type: cell-based; settings: KMS-11, 72 h, Table 5, 3 days, read-out: KMS11-luc EC50
Procedure: KMS11 (human myeloma cell line), were cultured in IMDM supplemented with 10% FBS, sodium pyruvate and antibiotics. Cells were plated in the same medium at a density of 2000 cells per well into 96 well tissue culture plates, with outside wells vacant, on the day of assay.
Test compounds supplied in DMSO were diluted into DMSO at 500 times the desired final concentrations before dilution into culture media to 2 times final concentrations.
After 3 days plates were equilibrated to room temperature and equal volume of CellTiter-Glow Reagent (Promega) was added to the culture wells. The plates were agitated briefly and luminescent signal was measured with luminometer.

Pim1 kinase = Pim1 kinase (Homo sapiens, UniProt P11309); assay: Pim1 AlphaScreen assay (high ATP)
Chain of Pim1 kinase (P11309 whole entry): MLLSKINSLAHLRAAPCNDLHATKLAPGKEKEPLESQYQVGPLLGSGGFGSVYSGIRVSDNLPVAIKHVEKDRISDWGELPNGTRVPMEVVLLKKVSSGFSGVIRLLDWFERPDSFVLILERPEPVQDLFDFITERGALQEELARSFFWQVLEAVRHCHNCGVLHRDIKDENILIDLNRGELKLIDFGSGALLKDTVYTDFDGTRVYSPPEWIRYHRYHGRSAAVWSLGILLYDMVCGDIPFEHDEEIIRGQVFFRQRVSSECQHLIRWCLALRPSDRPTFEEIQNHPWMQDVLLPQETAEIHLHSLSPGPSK
Procedure: (§1) The activity of Pim 1, Pim 2, & Pim 3 is measured using a homogeneous bead based system quantifying the amount of phosphorylated peptide substrate resulting from kinase-catalyzed phosphoryl transfer to a peptide substrate. Compounds to be tested are dissolved in 100% DMSO and directly distributed to a white 384-well plate at 0.25 μl per well. […] This is followed by the addition of 5 μl/well of Pim 1, Pim 2 or Pim 3 kinase in assay buffer (concentrations described below). Final assay concentrations (described below) are in 2.5% DMSO. The reactions are performed for ˜2 hours, then stopped by the addition of 10 μl of 0.75 μg/ml anti-phospho Ser/Thr antibody (Cell Signaling), 10 μg/ml Protein A AlphaScreen beads (Perkin Elmer), and 10 μg/ml streptavidin coated AlphaScreen beads in stop/detection buffer (50 mM EDTA, 95 mM Tris, pH=7.5, 0.01% Tween-20). The stopped reactions are incubated overnight in the dark. The phosphorylated peptide is detected via an oxygen anion initiated chemiluminescence/fluorescence cascade using the Envision plate reader (Perkin Elmer).

Pim2 kinase = Pim2 kinase (Homo sapiens, UniProt Q9P1W9); assay: Pim2 AlphaScreen assay (high ATP)
Chain of Pim2 kinase (Q9P1W9 whole entry): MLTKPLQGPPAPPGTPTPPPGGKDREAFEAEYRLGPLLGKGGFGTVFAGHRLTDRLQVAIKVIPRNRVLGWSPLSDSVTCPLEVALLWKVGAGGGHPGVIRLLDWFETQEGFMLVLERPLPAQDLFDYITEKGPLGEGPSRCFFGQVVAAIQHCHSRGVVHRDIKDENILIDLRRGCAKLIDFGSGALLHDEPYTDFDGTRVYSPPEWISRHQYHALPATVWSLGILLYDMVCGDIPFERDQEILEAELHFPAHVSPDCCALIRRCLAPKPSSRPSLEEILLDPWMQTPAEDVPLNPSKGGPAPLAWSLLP
Procedure: as §1

Pim3 kinase = Pim3 kinase (Homo sapiens, UniProt Q86V86); assay: Pim3 AlphaScreen assay (high ATP)
Procedure: as §1

Row | EC50 [1] [nM] | IC50 (Pim1 kinase) [nM] | IC50 (Pim2 kinase) [nM] | IC50 (Pim3 kinase) [nM] | SMILES
1 | > 10000 | 2.65 | 672 | 189 | CC1C[C@@H](c2ccncc2NC(=O)c2ccc(F)c(-c3c(F)cc(Oc4ccncc4)cc3F)n2)C[C@@H](O)[C@]1(C)O (stereo in doubt) [Example 116, 6-(2,6-difluoro-4-(pyridin-4-yloxy)phenyl)-N-(4-((1R,3R,4R,5S)-3,4-dihydroxy-4,5-dimethylcyclohexyl)pyridin-3-yl)-5-fluoropicolinamide]
2 | 20 | 0.07 | 3.2 | – | C[C@H]1C[C@@H](c2ccncc2NC(=O)c2ccc(F)c(-c3c(F)cc(CCO)cc3F)n2)C[C@@H](N)[C@]1(C)O [Example 1, N-(4-((1R,3R,4R,5S)-3-amino-4-hydroxy-4,5-dimethylcyclohexyl)pyridin-3-yl)-6-(2,6-difluoro-4-(2-hydroxyethyl)phenyl)-5-fluoropicolinamide]
3 | – | 0.13 | 8.1 | 1.43 | CC[C@]1(O)[C@H](N)C[C@H](c2ccncc2NC(=O)c2ccc(F)c(-c3c(F)cccc3F)n2)C[C@@H]1C [Example 11, N-(4-((1R,3R,4R,5S)-3-amino-4-ethyl-4-hydroxy-5-methylcyclohexyl)pyridin-3-yl)-6-(2,6-difluorophenyl)-5-fluoropicolinamide]
4 | – | 26.2 | 1440 | 303 | CC[C@]1(O)[C@H](C)C[C@H](c2ccncc2NC(=O)c2ccc(F)c(-c3c(F)cccc3F)n2)C[C@@H]1N [Example 12, N-(4-((1S,3S,4S,5R)-3-amino-4-ethyl-4-hydroxy-5-methylcyclohexyl)pyridin-3-yl)-6-(2,6-difluorophenyl)-5-fluoropicolinamide]
5 | – | 0.08 | 6 | 1.04 | COc1cc(F)c(-c2nc(C(=O)Nc3cnccc3[C@H]3C[C@@H](N)[C@](C)(O)[C@@H](C)C3)ccc2F)c(F)c1 [Example 15, N-(4-((1R,3R,4R,5S)-3-amino-4-hydroxy-4,5-dimethylcyclohexyl)pyridin-3-yl)-6-(2,6-difluoro-4-methoxyphenyl)-5-fluoropicolinamide]
6 | – | 4.25 | 780 | 73 | COc1cc(F)c(-c2nc(C(=O)Nc3cnccc3[C@H]3C[C@@H](C)[C@](C)(O)[C@@H](N)C3)ccc2F)c(F)c1 [Example 16, N-(4-((1S,3S,4S,5R)-3-amino-4-hydroxy-4,5-dimethylcyclohexyl)pyridin-3-yl)-6-(2,6-difluoro-4-methoxyphenyl)-5-fluoropicolinamide]
7 | – | 28.4 | 4650 | 646 | C[C@@H]1C[C@H](c2ccncc2NC(=O)c2nc(-c3c(F)cccc3F)ccc2N)C[C@H](O)[C@]1(O)CF [Example 17, 3-amino-6-(2,6-difluorophenyl)-N-(4-((1S,3S,4S,5R)-4-(fluoromethyl)-3,4-dihydroxy-5-methylcyclohexyl)pyridin-3-yl) picolinamide]
8 | – | 0.58 | 28.6 | 10.1 | C[C@H]1C[C@@H](c2ccncc2NC(=O)c2nc(-c3c(F)cccc3F)c(F)cc2N)C[C@@H](O)[C@@]1(O)CF [Example 23, 3-amino-6-(2,6-difluorophenyl)-5-fluoro-N-(4-((1R,3R,4R,5S)-4-(fluoromethyl)-3,4-dihydroxy-5-methylcyclohexyl)pyridin-3-yl) picolinamide]
9 | – | 22.1 | 4940 | 786 | C[C@@H]1C[C@H](c2ccncc2NC(=O)c2nc(-c3c(F)cccc3F)c(F)cc2N)C[C@H](O)[C@]1(O)CF [Example 24, 3-amino-6-(2,6-difluorophenyl)-5-fluoro-N-(4-((1S,3S,4S,5R)-4-(fluoromethyl)-3,4-dihydroxy-5-methylcyclohexyl)pyridin-3-yl) picolinamide]
10 | 84 | – | 5.73 | – | C[C@H]1C[C@@H](c2ccncc2NC(=O)c2ccc(F)c(-c3c(F)cc(C4COC4)cc3F)n2)C[C@@H](N)[C@]1(C)O [Example 63, N-(4-((1R,3R,4R,5S)-3-amino-4-hydroxy-4,5-dimethylcyclohexyl)pyridin-3-yl)-6-(2,6-difluoro-4-(oxetan-3-yl)phenyl)-5-fluoropicolinamide]
11 | 24 | – | 3.02 | – | C[C@H]1C[C@@H](c2ccncc2NC(=O)c2nc(-c3c(F)cccc3F)sc2N)C[C@@H](N)[C@]1(C)O [Example 68, 5-amino-N-(4-((1R,3R,4R,5S)-3-amino-4-hydroxy-4,5-dimethylcyclohexyl)pyridin-3-yl)-2-(2,6-difluorophenyl)thiazole-4-carboxamide]
12 | 98 | – | 4 | – | CCOCc1cc(F)c(-c2nc(C(=O)Nc3cnccc3[C@H]3C[C@@H](N)[C@](C)(O)[C@@H](C)C3)ccc2F)c(F)c1 [Example 72, N-(4-((1R,3R,4R,5S)-3-amino-4-hydroxy-4,5-dimethylcyclohexyl)pyridin-3-yl)-6-(4-(ethoxymethyl)-2,6-difluorophenyl)-5-fluoropicolinamide]
13 | 322 | – | – | – | C[C@H]1C[C@@H](c2ccncc2NC(=O)c2ccc(F)c(-c3c(F)cc(C4(O)CCOCC4)cc3F)n2)C[C@@H](O)[C@]1(C)O [Example 110, 6-(2,6-difluoro-4-(4-hydroxytetrahydro-2H-pyran-4-yl)phenyl)-N-(4-((1R,3R,4R,5S)-3,4-dihydroxy-4,5-dimethylcyclohexyl)pyridin-3-yl)-5-fluoropicolinamide]
14 | 256 | 0.02 | 1.39 | – | CC(C)c1cc(F)c(-c2nc(C(=O)Nc3cnccc3[C@H]3C[C@@H](N)[C@](C)(O)[C@@H](C)C3)ccc2F)c(F)c1 [Example 117, N-(4-((1R,3R,4R,5S)-3-amino-4-hydroxy-4,5-dimethylcyclohexyl)pyridin-3-yl)-6-(2,6-difluoro-4-isopropylphenyl)-5-fluoropicolinamide]
15 | 578 | – | 1.53 | – | C[C@H]1C[C@@H](c2ccncc2NC(=O)c2ccc(F)c(-c3c(F)cc(C4CCS(=O)(=O)CC4)cc3F)n2)C[C@@H](N)[C@]1(C)O [Example 119, N-(4-((1R,3R,4R,5S)-3-amino-4-hydroxy-4,5-dimethylcyclohexyl)pyridin-3-yl)-6-(4-(1,1-dioxidotetrahydro-2H-thiopyran-4-yl)-2,6-difluorophenyl)-5-fluoropicolinamide]
16 | – | 35.2 | 20200 | 454 | C[C@H]1C[C@@H](c2ccncc2NC(=O)c2nc(-c3cccc(OC(F)F)n3)ccc2N)C[C@@H](O)[C@]1(C)O [Example 123, 5-amino-6′-(difluoromethoxy)-N-(4-((1R,3R,4R,5S)-3,4-dihydroxy-4,5-dimethylcyclohexyl)pyridin-3-yl)-2,2′-bipyridine-6-carboxamide]
17 | – | 21.7 | > 25000 | 736 | C[C@H]1C[C@@H](c2ccncc2NC(=O)c2nc(-c3cccc(OCC(F)(F)F)n3)ccc2N)C[C@@H](O)[C@]1(C)O [Example 124, 5-amino-N-(4-((1R,3R,4R,5S)-3,4-dihydroxy-4,5-dimethylcyclohexyl)pyridin-3-yl)-6′-(2,2,2-trifluoroethoxy)-2,2′-bipyridine-6-carboxamide]

— patent US20120225061A1, “TETRASUBSTITUTED CYCLOHEXYL COMPOUNDS AS KINASE INHIBITORS” (priority 2011, published 2012)
